In patent US20130280259A1, “USE OF ANTIBODIES AGAINST NK1, NK2 AND/OR NK3 RECEPTORS IN CANCER TREATMENT” (SERVICIO ANDALUZ DE SALUD, priority 2010, published 2013):

Experiments:
[1] = system: advanced pancreatic cancer, advanced gastric cancer, glioblastoma, breast cancer; details: breast cancer after first-line chemotherapy (Procc ASCO 1999-2002); cited from earlier work
[2] = system: primary human fibroblasts (PHF); test: Immunohistochemistry of tumour microenvironment markers in primary human fibroblasts; format: cell-based
Procedure: A sample of each of the cultures of the cell lines was centrifuged (5 minutes at 1,500 rpm) and the pellet obtained was dehydrated by treatment at growing concentrations of ethanol and finally in xylol. Then these dehydrated samples were included in paraffin creating a block of cells. These paraffin blocks were cut in a microtome at a thickness of 5 micra and deparaffinised by sinking in xylol, to be subsequently hydrated through a number of solutions containing decreasing concentrations of ethanol and be finally sank in water. Then, these samples were subject to treatment in a pressure cooker in citrate buffer 10× at pH 6.0, to obtain a higher exposure of antigens. Subsequently, the samples were cooled at room temperature for 10 minutes. The endogenous peroxidase activity was blocked with 3% hydrogen peroxide for 30 minutes at room temperature. After washing the samples with 0.05 M of Tris buffer, they were incubated with swine non-immune serum at 10% for 30 minutes at room temperature. […]
PHF were obtained and purified from samples obtained from the skin dermis as described in De Bari et al. (De Bari et al., 2001). In brief, small pieces of skin dermis were digested in a hyaluronidase solution (Sigma-Aldrich, St. Louis, Mo., US) at a concentration of 1 mg/mL for 15 minutes at 37° C. and subsequently treated with 6 mg/mL of type IV collagenase (Invitrogen) for 2 hours at 37° C. Then the cells were washed, resuspended in DMEM culture medium with a high concentration of glucose (Dulbecco's Modified Eagle's Medium, Invitrogen) supplemented with 1% of antibiotics-antimicotics (Invitrogen) and with 1% of sodium pyruvate (Invitrogen), and sown in 6-well culture plaques at a concentration of 10,000 cells per square centimetre. When the cells reached confluence, the adherent cells were separated using 0.5% sterile trypsin (Invitrogen) and were used between runs 3 and 9. For stimulation of substance P and exposure to anti-NK1, anti-NK2 and anti-NK3 antibodies, PHF were sown in 24-well plaques at a concentration of 25,000 cells per well.
For the purpose of analysing the expression of these cell markers in PHF cultures in the presence of the NK1, NK2 and NK3 receptor agonist and in the presence of anti-NK1, NK2 or NK3 antibodies, these cells were cultured in the presence of substance P (NK1, NK2 and NK3 receptor agonist) at a concentration of 1 μM (product no. S6883; Sigma-Aldrich). In other wells and simultaneously these cells were cultured with substance P at the same concentration and simultaneously together with anti-NK1, anti-NK2 or anti-NK3 antibodies (Sigma-Aldrich) at a 1/100 concentration. After 48 hours of culture, the cells were recollected and cell blocks were built for immunohistochemistry assays, as explained in example 1. In the immunohistochemistry assays, the expression of the following markers was assayed: TGF-alpha (SAB4502953), TGF-beta 1 (SAB4502954), TGF-beta 2 (SAB4502956), TGF-beta 3 (SAB4502957), SPARC(HPA002989) MMP-3 (HPA007875); MMP-7 (SAB4501894), MMP-9 (SAB4501896), MMP-11 (SAB4501898), MMP-13 (SAB4501900) and MMP-14 (SAB4501901), by specific antibodies against them. For performing these immunohistochemistry assays, all antibodies were mouse polyclonal antibodies obtained from Sigma Aldrich, used at a 1/1000 concentration. The immunohistochemistry techniques were performed as described in Example 1. The results are summarised in Table 2, that gives the type of marker and the mean percentage of cells with immunostaining for this marker.
(§1) To assess immunostaining, six serial sections were made of each block placed over slides for performing the immunohistochemistry technique for each marker. Therefore, the immunohistochemical assay was performed six times for each marker in each case. In each of the six sections, cell count was performed in 20 fields of high magnification (400×) using a microscope of Olympus brand (model CX31). […]

[3] = system: human mononuclear blood cells; test: Immunohistochemistry of TGF-beta and NF-kB in mononuclear blood cells; format: cell-based; details: incubated with PHF; Substance P (1 μM) alone; 48 hours
Description: (§2) Heparinised blood from healthy donors was centrifuged, separating the different components thereof. Red blood cells remain in the bottom of the tube. Above them, there is a small whitish layer formed by white blood cells and above, in the upper part of the tube, blood plasma. The white blood cell layer was distributed in a culture plate of 24 wells, adding to each of them the same concentration of blood plasma supplemented with 1% of antibiotics-antimicotics (Invitrogen). About 1000 cells (PHF) from the skin dermis, obtained as described above, were added to each well.
as §1, with “CX31). In each field, the total cell number and the number of cells with immunostaining were counted, subsequently measuring the percentage of cells with this immunostaining.” for “CX31).”
(§3) The modification of the peritumoural microenvironment by treatment with anti-NK1, NK2 and/or NK3 antibodies has also been analysed determining the involvement of mononuclear and polymorphonuclear blood cells in this tumoural microenvironment. […]

[4] = system: human polymorphonuclear blood cells; test: Immunohistochemistry of TGF-beta and NF-kB in polymorphonuclear blood cells; format: cell-based; details: incubated with PHF; Substance P (1 μM) alone; 48 hours
Description: as §2
as §1, with “CX31). In each field, the total cell number and the number of cells with immunostaining were counted, subsequently measuring the percentage of cells with this immunostaining.” for “CX31).”
as §3

[5] = PHF, Substance P (1 μM) alone, 48 hours

Compound | Efficacy for the treatment of cancer [1] | Immunostaining for the markers tested (TGF-alpha, TGF-beta 1-3, SPARC, MMPs) ([2]; PHF cell cultures treated only with substance P) | Percentage of cells with expression for MMP-3 [2, 5] [%] | Percentage of cells with expression for MMP-7 [2, 5] [%] | Percentage of cells with expression for MMP-9 [2, 5] [%] | Percentage of cells with expression for MMP-11 [2, 5] [%] | Percentage of cells with expression for MMP-13 [2, 5] [%] | Percentage of cells with expression for MMP-14 [2, 5] [%] | Percentage of cells with expression for SPARC [2, 5] [%] | Percentage of cells with expression for TGF-alpha [2, 5] [%] | Percentage of cells with expression for TGF-beta 1 [2, 5] [%] | Percentage of cells with expression for TGF-beta 2 [2, 5] [%] | Percentage of cells with expression for TGF-beta 3 [2, 5] [%] | Percentage of mononuclear cells with expression for NF-kB [3] [%] | Percentage of mononuclear cells with expression for TGF-beta [3] [%] | Percentage of polymorphonuclear cells with expression for NF-kB [4] [%] | Percentage of polymorphonuclear cells with expression for TGF-beta [4] [%]
CNC(=O)[C@@H](NC(=O)[C@H](CC(C)C)[C@H](O)C(=O)NO)C(C)(C)C [Marimastat] | effective | – | – | – | – | – | – | – | – | – | – | – | – | – | – | – | –
Substance P | – | presence of all markers tested | 33.9 | 46.2 | 35.5 | 7.8 | 17.1 | 47.3 | 16 | 16.5 | 18.4 | 24.6 | 23.1 | 25.7 | 16.4 | 17.5 | 36.8
